Data reported in patent US20260241012A1, “1,8-NAPHTHYRIDIN-2-ONE HETEROBIFUNCTIONAL BCL6 DEGRADERS” (Treeline Biosciences, Inc., priority 2022, published 2026).

Target: T1, N-terminal HiBiT tagged BCL6 (Homo sapiens, UniProt P41182)
T1 construct: expressed in transfected cells; host or cells: HT1080 (ATCC CCL-121), stably transduced with lentivirus pLV-UBC-N-HiBiT-BCL6-PGK-puro
Assay: HiBiT based degradation assay
Format: cell-based
Conditions: HT1080 cells expressing N-terminal HiBiT tagged BCL6, 5 hours of incubation; for Ymin (5 hr): BCL6 degradation normalized with DMSO control; for DC50: four-parameter logistic model, read-out: EC50 (5 hr)
Description: Human BCL6 protein coding open reading frame fused with N-terminal HiBiT coding sequence was synthesized from Integrated DNA Technologies (IDT). Next, the N-HiBiT-BCL6 sequence was cloned into pLV-UBC-PGK-Puro, a lentivirus plasmid purchased from Vectorbuilder, to generate pLV-UBC-N-HiBiT-BCL6-PGK-puro. Lentiviral particles were generated from Lenti-X™ 293T cells (Clontech) by co-transfection of pLV-UBC-N-HiBiT-BCL6-PGK-puro plasmids and lentiviral packaging plasmid mix (Cellecta). HT1080 [HT1080] (ATCC CCL-121) cells were infected with the lentivirus, and HT1080 cells stably integrated with the lentiviral vectors were established by incubation with 1 μg/mL puromycin (Thermofisher).
HT1080 cells expressing N-terminal HiBiT tagged BCL6 were dispensed into a 384-well plate pre-spotted with compounds at varying concentrations. Five thousand cells were seeded into each well in 40 μL of RPMI 1640 media plus 10% Fetal Bovine Serum (10082-147, Thermofisher). After 5 hours of incubation at 37° C. with 5% CO2, 30 μL of the NANO-GLOR HiBiT Lytic Detection System working solution (Promega) was added to each well and incubated at room temperature for 15 min. After incubation, luminescence was read on a PHERAstar FSX Plate Reader (BMG). BCL6 degradation at each indicated concentration was normalized with DMSO control. The BCL6 degradation curves were plotted using a four-parameter logistic model.

Row | SMILES | Ymin (5 hr) | DC50 [nM]
1 | CNC(=O)COc1cc2cc(Nc3nc(N4CCN(CC5CCN(c6ccc7c(C8CCC(=O)NC8=O)nn(C)c7c6)CC5)CC4)ncc3Cl)cnc2n(C)c1=O (stereo not drawn) [Compound 107, 2-((6-((5-chloro-2-(4-((1-(3-(2,6-dioxopiperidin-3-yl)-1-methyl-1H-indazol-6-yl)piperidin-4-yl)methyl)piperazin-1-yl)pyrimidin-4-yl)amino)-1-methyl-2-oxo-1,2-dihydro-1,8-naphthyridin-3-yl)oxy)-N-methylacetamide] | +++ (30% ≤ Ymin < 50%) | < 10
2 | CNC(=O)COc1cc2cc(Nc3nc(N4CCN(CC5CCN(c6cccc7c(N8CCC(=O)NC8=O)nn(C)c67)CC5)CC4)ncc3Cl)cnc2n(C(C)C)c1=O [Compound 109, 2-((6-((5-chloro-2-(4-((1-(3-(2,4-dioxotetrahydropyrimidin-1 (2H)-yl)-1-methyl-1H-indazol-7-yl)piperidin-4-yl)methyl)piperazin-1-yl)pyrimidin-4-yl)amino)-1-isopropyl-2-oxo-1,2-dihydro-1,8-naphthyridin-3-yl)oxy)-N-methylacetamide] | +++ (30% ≤ Ymin < 50%) | 10 to 100
3 | CNC(=O)COc1cc2cc(Nc3nc(N4CCCN(CC5CCN(c6cccc7c(C8CCC(=O)NC8=O)nn(C)c67)CC5)CC4)ncc3Cl)cnc2n(C)c1=O (stereo not drawn) [Compound 110, 2-((6-((5-chloro-2-(4-((1-(3-(2,6-dioxopiperidin-3-yl)-1-methyl-1H-indazol-7-yl)piperidin-4-yl)methyl)-1,4-diazepan-1-yl)pyrimidin-4-yl)amino)-1-methyl-2-oxo-1,2-dihydro-1,8-naphthyridin-3-yl)oxy)-N-methylacetamide] | +++ (30% ≤ Ymin < 50%) | 10 to 100
4 | CNC(=O)COc1cc2cc(Nc3nc(N4CCC5(CCN(CC6CCN(c7cccc8c(C9CCC(=O)NC9=O)nn(C)c78)CC6)CC5)CC4)ncc3Cl)cnc2n(C)c1=O (stereo not drawn) [Compound 113, 2-((6-((5-chloro-2-(9-((1-(3-(2,6-dioxopiperidin-3-yl)-1-methyl-1H-indazol-7-yl)piperidin-4-yl)methyl)-3,9-diazaspiro[5.5]undecan-3-yl)pyrimidin-4-yl)amino)-1-methyl-2-oxo-1,2-dihydro-1,8-naphthyridin-3-yl)oxy)-N-methylacetamide] | ++++ (Ymin < 30%) | 10 to 100
5 | CNC(=O)COc1cc2cc(Nc3nc(N4CCN(CCC5CCN(c6ccc7c(C8CCC(=O)NC8=O)nn(C)c7c6)CC5)CC4)ncc3Cl)cnc2n(C)c1=O (stereo not drawn) [Compound 114, 2-((6-((5-chloro-2-(4-(2-(1-(3-(2,6-dioxopiperidin-3-yl)-1-methyl-1H-indazol-6-yl)piperidin-4-yl)ethyl)piperazin-1-yl)pyrimidin-4-yl)amino)-1-methyl-2-oxo-1,2-dihydro-1,8-naphthyridin-3-yl)oxy)-N-methylacetamide] | +++ (30% ≤ Ymin < 50%) | < 10
6 | CNC(=O)COc1cc2cc(Nc3nc(N4CCN(CCC5CCN(c6cccc7c(C8CCC(=O)NC8=O)nn(C)c67)CC5)CC4)ncc3Cl)cnc2n(C)c1=O (stereo not drawn) [Compound 115, 2-((6-((5-chloro-2-(4-(2-(1-(3-(2,6-dioxopiperidin-3-yl)-1-methyl-1H-indazol-7-yl)piperidin-4-yl)ethyl)piperazin-1-yl)pyrimidin-4-yl)amino)-1-methyl-2-oxo-1,2-dihydro-1,8-naphthyridin-3-yl)oxy)-N-methylacetamide] | +++ (30% ≤ Ymin < 50%) | < 10
7 | CNC(=O)COc1cc2cc(Nc3nc(N4CC5COCC(C4)N5CC4CCN(c5cccc6c(C7CCC(=O)NC7=O)nn(C)c56)CC4)ncc3Cl)cnc2n(C)c1=O (stereo not drawn) [Compound 117, 2-((6-((5-chloro-2-(9-((1-(3-(2,6-dioxopiperidin-3-yl)-1-methyl-1H-indazol-7-yl)piperidin-4-yl)methyl)-3-oxa-7,9-diazabicyclo[3.3.1]nonan-7-yl)pyrimidin-4-yl)amino)-1-methyl-2-oxo-1,2-dihydro-1,8-naphthyridin-3-yl)oxy)-N-methylacetamide] | ++++ (Ymin < 30%) | < 10
8 | CNC(=O)COc1cc2cc(Nc3nc(N4CC5(CN(CC6CCN(c7cccc8c(C9CCC(=O)NC9=O)nn(C)c78)CC6)C5)C4)ncc3Cl)cnc2n(C)c1=O (stereo not drawn) [Compound 119, 2-((6-((5-chloro-2-(6-((1-(3-(2,6-dioxopiperidin-3-yl)-1-methyl-1H-indazol-7-yl)piperidin-4-yl)methyl)-2,6-diazaspiro[3.3]heptan-2-yl)pyrimidin-4-yl)amino)-1-methyl-2-oxo-1,2-dihydro-1,8-naphthyridin-3-yl)oxy)-N-methylacetamide] | +++ (30% ≤ Ymin < 50%) | < 10
9 | CNC(=O)COc1cc2cc(Nc3nc(N4CCC5(CC4)CN(CC4CCN(c6cccc7c(C8CCC(=O)NC8=O)nn(C)c67)CC4)C5)ncc3Cl)cnc2n(C)c1=O (stereo not drawn) [Compound 120, 2-((6-((5-chloro-2-(2-((1-(3-(2,6-dioxopiperidin-3-yl)-1-methyl-1H-indazol-7-yl)piperidin-4-yl)methyl)-2,7-diazaspiro[3.5]nonan-7-yl)pyrimidin-4-yl)amino)-1-methyl-2-oxo-1,2-dihydro-1,8-naphthyridin-3-yl)oxy)-N-methylacetamide] | ++++ (Ymin < 30%) | < 10
10 | CNC(=O)COc1cc2cc(Nc3nc(N4CC[C@H](CNc5cccc6c(C7CCC(=O)NC7=O)nn(C)c56)C4)ncc3Cl)cnc2n(C)c1=O (stereo partly drawn) [Compound 122a, 2-((6-((5-chloro-2-((3R)-3-(((3-(2,6-dioxopiperidin-3-yl)-1-methyl-1H-indazol-7-yl)amino)methyl)pyrrolidin-1-yl)pyrimidin-4-yl)amino)-1-methyl-2-oxo-1,2-dihydro-1,8-naphthyridin-3-yl)oxy)-N-methylacetamide] | ++ (50% ≤ Ymin < 70%) | 10 to 100

Now from value to molecule:

Row | Ymin (5 hr) | DC50 [nM] | SMILES
11 | +++ (30% ≤ Ymin < 50%) | < 10 | CNC(=O)COc1cc2cc(Nc3nc(N4CCCN(CC5CCN(c6ccc7c(C8CCC(=O)NC8=O)nn(C)c7c6)CC5)CC4)ncc3Cl)cnc2n(C)c1=O (stereo not drawn) [Compound 111, 2-((6-((5-chloro-2-(4-((1-(3-(2,6-dioxopiperidin-3-yl)-1-methyl-1H-indazol-6-yl)piperidin-4-yl)methyl)-1,4-diazepan-1-yl)pyrimidin-4-yl)amino)-1-methyl-2-oxo-1,2-dihydro-1,8-naphthyridin-3-yl)oxy)-N-methylacetamide]
12 | ++++ (Ymin < 30%) | < 10 | CNC(=O)COc1cc2cc(Nc3nc(N4CC5(CN(CC6CCN(c7ccc8c(C9CCC(=O)NC9=O)nn(C)c8c7)CC6)C5)C4)ncc3Cl)cnc2n(C)c1=O (stereo not drawn) [Compound 118, 2-((6-((5-chloro-2-(6-((1-(3-(2,6-dioxopiperidin-3-yl)-1-methyl-1H-indazol-6-yl)piperidin-4-yl)methyl)-2,6-diazaspiro[3.3]heptan-2-yl)pyrimidin-4-yl)amino)-1-methyl-2-oxo-1,2-dihydro-1,8-naphthyridin-3-yl)oxy)-N-methylacetamide]
13 | +++ (30% ≤ Ymin < 50%) | < 10 | CNC(=O)COc1cc2cc(Nc3nc(N4CCC5(CC4)CN(CC4CCN(c6ccc7c(C8CCC(=O)NC8=O)nn(C)c7c6)CC4)C5)ncc3Cl)cnc2n(C)c1=O (stereo not drawn) [Compound 121, 2-((6-((5-chloro-2-(2-((1-(3-(2,6-dioxopiperidin-3-yl)-1-methyl-1H-indazol-6-yl)piperidin-4-yl)methyl)-2,7-diazaspiro[3.5]nonan-7-yl)pyrimidin-4-yl)amino)-1-methyl-2-oxo-1,2-dihydro-1,8-naphthyridin-3-yl)oxy)-N-methylacetamide]
14 | +++ (30% ≤ Ymin < 50%) | 10 to 100 | CNC(=O)COc1cc2cc(Nc3nc(N4CC[C@@H](CNc5cccc6c(C7CCC(=O)NC7=O)nn(C)c56)C4)ncc3Cl)cnc2n(C)c1=O (stereo partly drawn) [Compound 122b, 2-((6-((5-chloro-2-((3S)-3-(((3-(2,6-dioxopiperidin-3-yl)-1-methyl-1H-indazol-7-yl)amino)methyl)pyrrolidin-1-yl)pyrimidin-4-yl)amino)-1-methyl-2-oxo-1,2-dihydro-1,8-naphthyridin-3-yl)oxy)-N-methylacetamide]
15 | ++ (50% ≤ Ymin < 70%) | < 10 | CNC(=O)COc1cc2cc(Nc3nc(N4CC[C@H](CNc5ccc6c(C7CCC(=O)NC7=O)nn(C)c6c5)C4)ncc3Cl)cnc2n(C)c1=O (stereo partly drawn) [Compound 123a, 2-((6-((5-chloro-2-((3R)-3-(((3-(2,6-dioxopiperidin-3-yl)-1-methyl-1H-indazol-6-yl)amino)methyl)pyrrolidin-1-yl)pyrimidin-4-yl)amino)-1-methyl-2-oxo-1,2-dihydro-1,8-naphthyridin-3-yl)oxy)-N-methylacetamide]
